Assay results reported in ChEMBL document CHEMBL3351529, “Triazolopyridyl ketones as a novel class of antileishmanial agents. DNA binding and BSA interaction” (Bioorg Med Chem, 2014).
Activity calls are given as the source filed them. The calls are words filed in the database; no cut-off is given here.

Experiments:
[1] = Selectivity index, ratio of CC50 for mouse J774 cells to IC50 for promastigote form of Leishmania guyanensis 141/93; type: functional
Leishmania braziliensis = assay: Antileishmanial activity against promastigote form of Leishmania braziliensis 2903 after 48 hrs by resazurin fluorescence assay; type: functional, organism-based; settings: Leishmania braziliensis, 2903, 48 h
Leishmania amazonensis [2] = assay: Antileishmanial activity against promastigote form of Leishmania amazonensis MHOM/Br/79/Maria after 48 hrs by resazurin fluorescence assay; type: functional, organism-based
[3] = Cytotoxicity against mouse J774 cells assessed as reduction in cell viability after 24 hrs by resazurin fluorescence assay; type: cell-based
Leishmania infantum [4] = assay: Antileishmanial activity against promastigote form of Leishmania infantum MCAN/ES/96/BCN150 after 48 hrs by resazurin fluorescence assay; type: functional, organism-based
[5] = Selectivity index, ratio of CC50 for mouse J774 cells to IC50 for promastigote form of Leishmania braziliensis 2903; type: functional
Leishmania guyanensis = assay: Antileishmanial activity against promastigote form of Leishmania guyanensis 141/93 after 48 hrs by resazurin fluorescence assay; type: functional, organism-based; settings: 141/93, 48 h
[6] = Selectivity index, ratio of CC50 for mouse J774 cells to IC50 for promastigote form of Leishmania amazonensis MHOM/Br/79/Maria; type: functional
[7] = Selectivity index, ratio of CC50 for mouse J774 cells to IC50 for promastigote form of Leishmania infantum MCAN/ES/96/BCN150; type: functional
Calf thymus DNA [8] = assay: Binding affinity to calf thymus DNA at 10 uM by UV-visible titration method; type: nucleic-acid assay; settings: Bos taurus
Albumin [9] = target: T1, Albumin (Bos taurus, UniProt P02769); assay: Competitive binding affinity to bovine serum albumin site 2 assessed as quenching constant after 10 mins by fluorimetric titration method in presence of ibuprofen; type: ADME; settings: cattle, isolated protein
T1 sequence (P02769 whole entry): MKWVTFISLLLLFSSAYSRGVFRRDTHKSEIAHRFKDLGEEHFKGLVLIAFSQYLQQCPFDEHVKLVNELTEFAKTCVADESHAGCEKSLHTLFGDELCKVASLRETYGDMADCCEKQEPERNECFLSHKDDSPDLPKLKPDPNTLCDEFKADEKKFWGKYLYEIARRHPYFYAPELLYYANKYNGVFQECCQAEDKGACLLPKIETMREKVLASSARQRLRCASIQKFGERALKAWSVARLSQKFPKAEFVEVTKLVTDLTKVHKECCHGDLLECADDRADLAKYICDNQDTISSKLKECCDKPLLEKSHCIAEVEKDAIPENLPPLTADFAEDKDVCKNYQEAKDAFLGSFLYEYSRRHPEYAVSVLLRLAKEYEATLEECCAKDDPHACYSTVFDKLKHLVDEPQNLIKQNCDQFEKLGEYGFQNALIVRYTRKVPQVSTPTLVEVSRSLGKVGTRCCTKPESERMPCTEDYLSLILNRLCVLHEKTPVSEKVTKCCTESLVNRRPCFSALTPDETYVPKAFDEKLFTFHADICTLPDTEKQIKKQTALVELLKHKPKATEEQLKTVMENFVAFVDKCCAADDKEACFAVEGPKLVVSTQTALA

Albumin [10] = target: T1, Albumin; assay: Binding affinity to bovine serum albumin after 10 mins by fluorimetric titration method; type: ADME; settings: cattle, isolated protein
Bos taurus = species on record: Bos taurus; assay: Effect on calf thymus DNA viscosity at 1 to 10 uM
[11] = Selectivity index, ratio of CC50 for mouse J774 cells to IC50 for amastigote form of Leishmania infantum MCAN/ES/96/BCN150 infected in mouse J774 cells; type: functional
Leishmania infantum [12] = assay: Antileishmancidal activity against amastigote form of Leishmania infantum MCAN/ES/96/BCN150 infected in BALB/c mouse assessed as reduction of parasite burden in liver at 5 mg/kg, ip qd for 5 consecutive days starting 21 days post infection measured after 7 days relative to untreated control; type: functional
Calf thymus DNA [13] = assay: Binding affinity to calf thymus DNA by UV-visible titration method; type: nucleic-acid assay; settings: Bos taurus
Calf thymus DNA [14] = assay: Binding affinity to calf thymus DNA assessed as hypochromic effect at DNA-compound ratio of 3 by UV-visible titration method; type: nucleic-acid assay; settings: Bos taurus
Leishmania infantum [15] = assay: Antileishmancidal activity against amastigote form of Leishmania infantum MCAN/ES/96/BCN150 infected in BALB/c mouse assessed as reduction of parasite burden in spleen at 5 mg/kg, ip qd for 5 consecutive days starting 21 days post infection measured after 7 days relative to untreated control; type: functional; design: scale not given: the % may be the effect or the level left; settings: route intraperitoneal
Leishmania amazonensis [16] = assay: Antileishmanial activity against amastigote form of Leishmania amazonensis MHOM/Br/79/Maria infected in mouse J774 cells assessed as reduction in intracellular amastigotes compound treated for 48 hrs followed by 3 days incubation for transformation by resazurin fluorescence assay; type: functional, organism-based
Leishmania infantum [17] = assay: Antileishmanial activity against amastigote form of Leishmania infantum MCAN/ES/96/BCN150 infected in mouse J774 cells assessed as reduction in intracellular amastigotes compound treated for 48 hrs followed by 3 days incubation for transformation by resazurin fluorescence assay; type: functional, organism-based; settings: MCAN/ES/96/BCN150, J774
Albumin [18] = target: T1, Albumin; assay: Competitive binding affinity to bovine serum albumin site 1 assessed as quenching constant after 10 mins by fluorimetric titration method in presence of warfarin; type: ADME; settings: cattle, isolated protein
Albumin [19] = target: T1, Albumin; assay: Binding affinity to bovine serum albumin assessed as quenching constant after 10 mins by Stern-Volmer plot method; type: ADME; settings: cattle, isolated protein
Mus musculus [20] = assay: Toxicity in BALB/c mouse assessed as gross weight loss at 5 mg/kg, ip qd for 5 consecutive days; type: organism-based; design: dose 5 mg/kg, route intraperitoneal; settings: in vivo
[21] = Selectivity index, ratio of CC50 for mouse J774 cells to IC50 for amastigote form of Leishmania amazonensis MHOM/Br/79/Maria infected in mouse J774 cells; type: functional
Mus musculus [22] = assay: Toxicity in BALB/c mouse assessed as hair loss at 5 mg/kg, ip qd for 5 consecutive days; type: organism-based; design: dose 5 mg/kg, route intraperitoneal; settings: in vivo
[23] = Leishmania amazonensis, MHOM/Br/79/Maria, 48 h, read-out: IC50
[24] = Leishmania infantum, MCAN/ES/96/BCN150, 48 h, read-out: IC50

| Kb (Albumin [9]) [×10³ /M] | Kb (Albumin [10]) [×10⁴ /M] | Kq (Albumin [10]) [×10¹³ /M/sec] | Activity (Bos taurus) | Kb (Calf thymus DNA [13]) [×10⁵ /M] | Activity (Calf thymus DNA [14]) [%] | Kb (Albumin [18]) [×10³ /M] | KSV (Albumin [19]) [×10⁵ /M] | Compound | Ratio CC50/IC50 [1] | IC50 (Leishmania braziliensis) [µM] | CC50 at 24 h [3] [µM] | Ratio CC50/IC50 [5] | IC50 (Leishmania guyanensis) [µM] | IC50 (Leishmania amazonensis [2]; [23]) [µM] | Ratio CC50/IC50 [6] | IC50 (Leishmania infantum [4]; [24]) [µM] | Ratio CC50/IC50 [7] | Ratio CC50/IC50 [11] | Activity (Leishmania infantum [15]) [%] | IC50 (Leishmania infantum [17]) [µM] | also measured |
| --- | --- | --- | --- | --- | --- | --- | --- | --- | --- | --- | --- | --- | --- | --- | --- | --- | --- | --- | --- | --- | --- |
|  |  |  |  |  |  |  |  | O=C(c1cccc2c(-c3ccccc3)nnn12)c1cccc2c(-c3ccccc3)nnn12 | >4.5 | 56.8 | ≥ 300 | >2.5 | 53.8 |  |  |  |  |  |  |  | IC50 (Leishmania amazonensis [2]): Not Active; IC50 (Leishmania infantum [4]): Not Active |
|  |  |  |  |  |  |  |  | O=C(c1ccccn1)c1cccc2c(-c3ccccc3)nnn12 | >2.4 | 169 | ≥ 300 | >1.8 | 126 | 106 | >2.8 | 173 | >1.9 |  |  |  |  |
|  |  |  |  |  |  |  |  | O=C(c1ccccn1)c1cccc(-c2nnn3ccccc23)n1 | >2.8 | 190 | ≥ 300 | >1.6 | 109 | 108 | >2.8 | 231 | >1.3 |  |  |  | Activity (Calf thymus DNA [8]): inactive |
| 3.8 | 1.9 | 2.4 | inactive | 3.26 | 60 | 8.2 | 2.4 | O=C(c1cccc(C(=O)c2cccc(-c3nnn4ccccc34)n2)n1)c1cccc(-c2nnn3ccccc23)n1 | >10.4 | 59.4 | ≥ 300 | >5.1 | 28.7 | 53.7 | >5.6 | 99.8 | >3 | >7.9 | 78.2 | 38 | Activity (Leishmania infantum [12]): inactive; IC50 (Leishmania amazonensis [16]; j774): Not Active |
| 5.3 | 2.5 | 2.6 | inactive | 1.14 | 60 | 9.3 | 2.6 | O=C(c1cccc(-c2nnn3ccccc23)n1)c1cccc(-c2nnn3ccccc23)n1 | >10.2 | 26.8 | ≥ 300 | >11.2 | 29.3 | 89.6 | >3.3 | 47.3 | >6.3 | >15.3 | 99.3 | 19.5 | Activity (Mus musculus [20]): Non-toxic; Activity (Leishmania infantum [12]; route intraperitoneal): 92.8%; IC50 (Leishmania amazonensis [16]; Leishmania amazonensis, MHOM/Br/79/Maria, J774, read-out: IC50): 115 µM; Ratio CC50/IC50 [21]: >2.6; Activity (Mus musculus [22]): Non-toxic |
|  |  |  |  |  |  |  |  | CCCCCCCCCCCCCCCCOP(=O)([O-])OCC[N+](C)(C)C [MILTEFOSINE] | 3.1 | 27.1 | 164 | 6 | 53.6 | 28.3 | 5.8 | 21.3 | 7.7 | 5.7 |  |  | Ratio CC50/IC50 [21]: 6.5 |
